Data from patent US10183915B2, “Axially chiral isomers, and preparation methods therefor and pharmaceutical uses thereof” (MEDSHINE DISCOVERY INC., priority 2015, dated 2019).
Like-named read-outs stand apart in the source and are kept apart here.

Tests used:
[1] = Stability of compounds in ethanol solutions (heated; SFC chiral purity); type: physicochemical; details: for Enantiomer Excess of Compound: ethanol solution
Description: Test 3: Evaluation of the Stability of Compounds in Ethanol Solutions.
An appropriate amount of test compound was accurately weighed, added into ethanol to obtain an ethanol solution. The ethanol solution of the compound was stirred in a heated oil bath. At the end of the test, the purity and chiral purity of the compound was detected by high performance liquid chromatography (HPLC) or LC-MS (LCMS) and supercritical fluid chromatography (SFC).

[2] = Stability of compounds in DMSO solutions (heated; SFC chiral purity); type: physicochemical; details: for Enantiomer Excess of Compound: DMSO solution
Method: Example 4: Evaluation of the Stability of Compounds in DMSO Solutions
An appropriate amount of test compound was accurately weighed, added into DMSO to obtain a DMSO solution. The DMSO solution of the compound was stirred in a heated oil bath. At the end of the test, a sample amount of the DMSO solution was diluted with ethanol and the purity and chiral purity of the compound was detected by high performance liquid chromatography (HPLC) or LC-MS (LCMS) and supercritical fluid chromatography (SFC).

[3] = Stability of compounds in human plasma; type: in vitro ADME
Method: (§1) Test 5: Evaluation of the Stability of Compounds in Rat Plasma and Human Plasma
(§2) 2. Experimental Procedures and Methods • 2.1 Prior to the experiment, the frozen plasma stored at −40° C. was thawed at room temperature and incubated in a 37° C. water bath for 5-10 min; centrifuged at 4000 rpm for 5 min, to remove impurities and lipids in the plasma. Measured the value of pH, if required, adjusted it to 7.4±0.1. • 2.2 Prepared 400 μM intermediate solution by diluting 4 μL of the working solution (10 mM) with 96 μL DMSO. • 2.3 Preparation of incubation samples: Remove 3 μL of intermediate solution (400 μM) to mix with 597 μL of blank plasma to achieve 2 μM of final concentration. Incubate each time point samples (0 min, 10 min, 30 min, 60 min, 120 min, in duplicate) at 37° C. in water bath. • 2.4 An aliquot of 100 μL samples of the final spiked plasma for each time point were removed to sample collected plates, added 400 μL of stop solution (200 ng/mL Tolbutamide plus 20 ng/mL Buspirone in 50% ACN/MeOH) to precipitate protein. Mixed thoroughly. • 2.5 Centrifuged each plate at 4,000 rpm for 20 min. Transfered an aliquot of supernatant (100 μL) from each well to sample plate and mixed with 200 μL ultra pure water. Shaked the plate at 800 rpm for about 10 min before submitting to LC-MS/MS analysis. 3. Experimental Data Analysis
(§3) The ratio of the peak area to the internal standard peak area was used to assess the decrease of the test compound to be measured. The % remaining of the test compound after incubation in plasma was calculated using following equation: % Remaining=100×(PAR at appointed incubation time/PAR at T0 time)
(§4) wherein PAR is the peak area ratio of analyte versus internal standard (IS)
(§5) The appointed incubation time points are: 0 min, 10 min, 30 min, 60 min, 120 min; T0: Samples prior to incubation.

[4] = Stability of compounds in SD rat plasma; type: in vitro ADME; details: for Recovery (% remaining): SD rat plasma, 2 μM, 37° C.
Method: as §1, §2, §3, §4, §5

[5] = In vivo pharmacokinetic study in male Sprague-Dawley rats (IV and PO); parameters: species or system Sprague-Dawley rat; details: for MRT inf: read-out: MRT0-inf
Method: Test 6: In Vivo Pharmacokinetic Study of the Test Compounds in Rats
To study the pharmacokinetic behavior of the compounds in rats and to evaluate their pharmacokinetic characteristics, their concentrations in plasma were determined by LC/MS/MS.
Appropriate amount of sample was added to a certain amount of pure water, the pH were adjusted to 7-8, to prepare to be 1 mg/mL (filtered and clarified) and 2 mg/mL (with a few particles of suspension) for IV and PO administration. • 2.4 Administration • 18 male SD rats were randomly assigned to 6 treatment groups, 3 rats in each group. Male rats were administrated IV and PO respectively after fasting overnight. The IV dosage was 2 mg/kg, the dose volume was 2 mL/kg, the PO dosage was 10 mg/kg, and the dose volume was 5 mL/kg. 3. Experimental Procedure
For IV group, 250 μL blood samples were collected before administration, and 0.083, 0.25, 0.5, 1, 2, 4, 8, 24 hours after administration, and placed in K2-EDTA anticoagulant tube, centrifuged at 3000 rpm for 15 minutes, plasma was separated, stored at −80° C. For PO Group, blood samples were collected before administration, and 0.25, 0.5, 1, 2, 4, 8, 24 hours after administration, and the other operations were the same as group IV. The content of the test compounds in the plasma of rats after administration of IV and PO were determined by LC/MS/MS method. The linear range of the assay was 6.00-18000 nM, and the lower limit of quantification was 6 nM; the plasma samples were analyzed by pretreatment with precipitated proteins.

[6] = male SD rats, IV 2 mpk, 2 mg/kg
[7] = male, Sprague-Dawley, rat, plasma, iv, 2 mg/kg, male SD rats, IV 2 mpk
[8] = male, Sprague-Dawley, rat, plasma, po, 10 mg/kg, male SD rats, PO 10 mpk

O=C(O)CSc1nnc(Br)n1-c1ccc(C2CC2)c2ccccc12 (single isomer, unassigned) [(+)-Lesinurad]
Enantiomer Excess of Compound ([1]; 37° C., 3 days): Unchanged
Enantiomer Excess of Compound ([1]; 70° C., 3 days): Unchanged
Enantiomer Excess of Compound ([1]; heating time 0 day): 95.9%
Stability in ethanol solutions (SFC purity) ([1]; heating to 37° C. and up to 70° C.): very stable
Enantiomer Excess of Compound ([2]; 80° C., 0 h): 95.9%
Enantiomer Excess of Compound ([2]; 80° C., 2 × 24 h): Unchanged
Enantiomer Excess of Compound ([2]; 80° C., 4 × 24 h): Unchanged
Enantiomer Excess of Compound ([2]; 80° C., 2 h): Unchanged
Enantiomer Excess of Compound ([2]; 80° C., 4 h): Unchanged
Enantiomer Excess of Compound ([2]; 80° C., 8 h): Unchanged
Enantiomer Excess of Compound ([2]; 80° C., 24 h): Unchanged
Enantiomer Excess of Compound ([2]; 120° C., 0 h): 95.9%
Enantiomer Excess of Compound ([2]; 120° C., 2 × 24 h): Unchanged
Enantiomer Excess of Compound ([2]; 120° C., 4 × 24 h): Unchanged
Enantiomer Excess of Compound ([2]; 120° C., 2 h): Unchanged
Enantiomer Excess of Compound ([2]; 120° C., 4 h): Unchanged
Enantiomer Excess of Compound ([2]; 120° C., 8 h): Unchanged
Enantiomer Excess of Compound ([2]; 120° C., 24 h): Unchanged
Enantiomer Excess of Compound ([2]; 160° C., 0 h): 95.9%
Enantiomer Excess of Compound ([2]; 160° C., 8 h): Unchanged
Stability in DMSO solutions (SFC purity) ([2]; heating to 80° C., 120° C. and up to 160° C.): very stable
Stability after co-incubation with human plasma ([3]; 2 hours): very stable
Recovery (% remaining) ([3]; human plasma, 2 μM, 37° C., 120 min): 100.4%
recovery at 0 min, 2 μM ([3]; human, plasma, pH 7.4, human plasma, 2 μM, 37° C., 0 min, read-out: Recovery (% remaining)): 100%
recovery at 10 min, 2 μM ([3]; human, plasma, pH 7.4, human plasma, 2 μM, 37° C., 10 min, read-out: Recovery (% remaining)): 100%
recovery at 30 min, 2 μM ([3]; human, plasma, pH 7.4, human plasma, 2 μM, 37° C., 30 min, read-out: Recovery (% remaining)): 99.5%
recovery at 60 min, 2 μM ([3]; human, plasma, pH 7.4, human plasma, 2 μM, 37° C., 60 min, read-out: Recovery (% remaining)): 99.4%
Stability after co-incubation with SD-rat plasma ([4]; 2 hours): very stable
Recovery (% remaining) ([4]; 30 min): 100.3%
Recovery (% remaining) ([4]; 60 min): 99.7%
Recovery (% remaining) ([4]; 120 min): 101.2%
Transformation of the atropisomer in vivo ([5]; SD rats, IV and PO): no transformation was observed
AUC0-inf [5, 6]: 15.03902 ± 1.0268 µM·h
Cl [5, 6]: 5.50 ± 0.36 mL/min/kg
Bioavailability ([5]; male SD rats, PO 10 mpk vs IV 2 mpk): 44.65%
AUC0-inf ([5]; male SD rats, PO 10 mpk, 10 mg/kg): 32.68473 ± 13.43235 µM·h
C0 [5, 7]: 11.5 ± 2.72 µM
half-life [5, 7]: 1.61 ± 0.11 h
MRT inf [5, 7]: 2.08 ± 0.08 h
Vd ([5]; male, Sprague-Dawley, rat, plasma, iv, 2 mg/kg, male SD rats, IV 2 mpk, read-out: Vdss): 0.69 ± 0.03 L/kg
Cmax [5, 8]: 7.76 ± 5.15 µM
half-life [5, 8]: 2.25 ± 0.02 h
MRT inf [5, 8]: 4.09 ± 0.87 h
Tmax ([5]; male, Sprague-Dawley, rat, plasma, po, 10 mg/kg, male SD rats, PO 10 mpk, read-out: Tmax): 3 ± 1.73 h
